Test in all cases: Plaque reduction assay (PRA) in MDCK cells
A general note: Plaques are areas of infected cells; plaque reduction assays count them against a control.

One experiment relates to A/WSN/33 BVLV09 (H1N1). It is filed as cell-based, influenza virus. The following applies: plaque numbers reduced by 50%.
Experiment [1] has as its system A/Victoria/3/75 BVLV017 (H3N2). It is filed as cell-based, influenza virus. Conditions: Influenza A virus, H3N2, MDCK, plaque numbers reduced by 50%, read-out: EC50 ng/ml PRA A/Vic.
In experiment [2] the test system is A/Sydney/5/97 BVLV015 (H3N2). It is filed as cell-based, influenza virus. The following applies: Influenza A virus, MDCK, plaque numbers reduced by 50%, read-out: EC50 ng/ml PRA A/Syd.
Experiment [3] has as its system A/New Caledonia/20/99 BVLV008 (H1N1). It is filed as cell-based, influenza virus. Conditions: plaque numbers reduced by 50%.
For experiment [4], the system named is A/Panama/2007/99 BVLV008 (H3N2). It is filed as cell-based, influenza virus. The following applies: plaque numbers reduced by 50%.
Experiment [5] deals with A/Bayern/7/95 BVL006 (H1N1). It is filed as cell-based. The following applies: Influenza A virus, plaque numbers reduced by 50%, read-out: EC50 ng/ml PRA A/Bay.
A further experiment concerns B/Harbin/7/95 BVLV008. It is filed as cell-based, influenza virus. The following applies: read-out: EC50 ng/ml PRA B/Harb.
A further experiment deals with B/Hong Kong/5/72 BVLV012. It is filed as cell-based, influenza virus. Conditions: MDCK, read-out: EC50 ng/ml PRA B/HongK.

Values after ≈ are worked out from the molar mass of the structure shown. Some results are limits rather than exact numbers.

As to `CC(=O)N[C@H]1[C@H]([C@H](O)[C@H](O)CO)OC(C(=O)O)=C[C@@H]1NC(=N)N` [Compound A], the EC50 worked out at 56 ng/mL (≈ 169 nM) with A/WSN/33 BVLV09 (H1N1) (Influenza A virus, MDCK, read-out: EC50 ng/ml PRA A/WSN); 5.5 ng/mL (≈ 16.6 nM) in experiment [1]; 2.4 ng/mL (≈ 7.22 nM) in experiment [2]; 0.27 ng/mL (≈ 0.812 nM) in experiment [3] (Influenza A virus, H1N1, MDCK, read-out: EC50 ng/ml PRA A/New); 2.7 ng/mL (≈ 8.12 nM) in experiment [4] (Influenza A virus, H3N2, MDCK, read-out: EC50 ng/ml PRA A/Pan); 35 ng/mL (≈ 105 nM) in experiment [5]. In addition, the EC50 in the experiment with B/Harbin/7/95 BVLV008 was 0.19 ng/mL (≈ 0.572 nM); with B/Hong Kong/5/72 BVLV012 it was 21 ng/mL (≈ 63.2 nM). The “EC50 ng/ml PRA A/WSN” value in the experiment with A/WSN/33 BVLV09 (H1N1) was over 100 ng/mL. Further, the “EC50 ng/ml PRA A/New” value in experiment [3] worked out at 0.23 ng/mL (≈ 0.692 nM). Moreover, the “EC50 ng/ml PRA A/Pan” value in experiment [4] came to 3 ng/mL (≈ 9.03 nM).

Source of the values: patent US20050085413A1, “Dimeric pharmaceutical compounds and their use” (priority 2001, published 2005).
